Test results reported in patent US9414587B2, “Solubilized magnolol analogs” (Cologne-Palmolive Company, priority 2011, dated 2016).

Type: physicochemical
Excerpt: Each of the sorbitan esters is capable of solubilizing up to 100 g per liter of neat propyl magnolol or butyl magnolol. In certain embodiments, the amount of sorbitan ester is at least 10 times the weight of the propyl magnolol or butyl magnolol in the composition.
Polysorbate 80 is capable of solubilizing up to 50 g per liter of neat isopropyl magnolol or isobutyl magnolol. In certain embodiments, the amount of polysorbate 80 is at least 20 times the weight of the isopropyl magnolol or isobutyl magnolol in the composition. It was surprising that polysorbate 80 was able to solubilize these analogs. Isobutyl magnolol is not soluble in polysorbate 20, polysorbate 40, or polysorbate 85.
Polysorbate 20 is capable of solubilizing up to 100 g per liter of neat isopropyl magnolol. In certain embodiments, the amount of polysorbate 20 is at least 10 times the weight of the isopropyl magnolol in the composition. It was surprising that polysorbate 20 was able to solubilize these analogs. Isopropyl magnolol is only soluble up to 10 g per liter in polysorbate 40 or polysorbate 85.
It was surprising that these sorbitan esters were capable of solubilizing these analogs.

CC(C)Cc1ccc(O)c(-c2cc(CC(C)C)ccc2O)c1 [isobutyl magnolol, 5,5′-di-isobutylbiphenyl-2,2′-diol]
amount of neat analog that polysorbate 80 is capable of solubilizing: up to 50 g per liter | solubility in polysorbate 20 (in words): not soluble | solubility in polysorbate 40 (in words): not soluble

CC(C)c1ccc(O)c(-c2cc(C(C)C)ccc2O)c1 [isopropyl magnolol, 5,5′-di-isopropylbiphenyl-2,2′-diol]
amount of neat analog that polysorbate 20 is capable of solubilizing: up to 100 g per liter | amount of neat analog that polysorbate 80 is capable of solubilizing: up to 50 g per liter | solubility in polysorbate 40: up to 10 g per liter | solubility in polysorbate 85: up to 10 g per liter

CCCc1ccc(O)c(-c2cc(CCC)ccc2O)c1 [propyl magnolol, 5,5′-di-n-propylbiphenyl-2,2′-diol]
amount of neat analog that the sorbitan ester is capable of solubilizing: up to 100 g per liter

CCCCc1ccc(O)c(-c2cc(CCCC)ccc2O)c1 [butyl magnolol, 5,5′-di-n-butylbiphenyl-2,2′-diol]
amount of neat analog that the sorbitan ester is capable of solubilizing: up to 100 g per liter
